# Results from paper PMC6748986, “Potent modulation of the CepR quorum sensing receptor and virulence in a Burkholderia cepacia complex member using non-native lactone ligands” (Scientific Reports, 2019).
# Molecular target: T1, CepR (Burkholderia cenocepacia, UniProt B4EMD0)
# T1 sequence (B4EMD0 1-239): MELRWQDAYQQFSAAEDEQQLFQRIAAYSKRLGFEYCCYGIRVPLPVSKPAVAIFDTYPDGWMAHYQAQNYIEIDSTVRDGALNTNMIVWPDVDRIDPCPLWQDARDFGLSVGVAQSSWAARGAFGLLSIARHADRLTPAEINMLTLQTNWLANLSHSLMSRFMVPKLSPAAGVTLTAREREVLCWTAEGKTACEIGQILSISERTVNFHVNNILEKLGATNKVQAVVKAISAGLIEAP
# Assay: CepR antagonism in E. coli β-galactosidase reporter (Ec-reporter), competition against C8-AHL
# Format: cell-based, B. cenocepacia
# Conditions: Ec-reporter
# Source text: (§1) We began our study by screening the AHL library for CepR modulators using an E. coli-based two plasmid reporter system (Ec-reporter)[38]–[40]. Certain members of the Bcc harbor additional QS systems that are either AHL-based (e.g., BviI/BviR in B. vietnamiensis)[41] or diffusible signal factor (DSF)-based (B. cenocepacia)[42], and at least one member of the Bcc has multiple receptors that respond to C8-AHL (e.g., CepR and CepR2 in B. cenocepacia)[43]. Thus, we reasoned that using a CepR reporter in a heterologous background could simplify our initial analyses. We modified our previously reported E. coli-based two plasmid β-galactosidase reporter system to develop a CepR Ec-reporter (see Methods). The first plasmid, pJN105-cepR, contains CepR from B. cenocepacia under the control of the L-arabinose inducible pBAD promoter. A second plasmid contains a transcriptional fusion of lacZ to the cepI promoter region. The two plasmids were co-transformed into a QS mutant E. coli strain (JLD271 ∆sdiA) that lacks its LuxR-type receptor, SdiA. Using this reporter system, if an exogenously -added compound is able to interact with CepR, this will affect the protein’s interaction with the cepI promoter region and alter β-galactosidase production. Enzyme production, and thereby CepR activity, is then measurable via the degradation of a colorimetric substrate for β-galactosidase. Using this new Ec-reporter, we observed robust activity of CepR in response to its native ligand C8-AHL, with an EC50 of 5 nM (Table 1).
# To identify antagonists of CepR, we screened the AHL library (at 100 μM) in competition against the native ligand C8-AHL (at approximately twice its EC50 value, 0.01 μM) in the Ec-reporter. […] The active compounds were subjected to dose-response analyses in the Ec-reporter to obtain IC50 values and assess their relative potencies (Table 2; see Table S3 for complete screening data and Fig. S3 for dose-response curves). One general trend that we noted at the outset was the majority of the antagonists had acyl tails of similar or shorter overall length than CepR’s native ligand, C8-AHL. From this set, the strongest antagonists could be divided into two classes: (i) “short alkyl tail” AHLs or analogs thereof, and (ii) phenylacetanoyl HLs (PHLs). The discovery that the latter compounds were CepR antagonists was perhaps not surprising, as we have found substituted PHLs to strongly antagonize the majority of the LuxR-type receptors studied in our laboratory to date[22],[24],[29],[45],[46].
# (§2) E. coli β-galactosidase reporter assays (derived from ref.[63]) and reagents used to obtain primary screening and dose-response data were performed as previously described[22],[60],[64], with the following modifications: E. coli JLD271 (∆sdiA) was co-transformed iteratively with pSC11-cepI and pJN105-cepR via electroporation. A single colony was used to start overnight cultures in LB medium + ampicillin (100 μg/mL) + gentamicin (15 μg/mL). A 1:10 dilution of overnight culture was grown in fresh medium to OD600 = 0.25. A sterile solution of L-arabinose in water (27 mM final concentration) was added to induce protein expression, after which cells were plated in 96-well plates containing varying concentrations of compound (200 μL total volume).
# (§3) Cells were grown for 4 h, OD600 was read, 50 μL aliquots from each well were permeabilized in 200 μL Z Buffer, and then 150 μL of this mixture used to measure the cleavage of 25 μL of 4 mg/mL CPRG in phosphate buffered saline (PBS) at 37 °C until positive control wells developed a deep red color (~30 min). For all agonism assays, synthetic compound (100 μM) was screened alongside and compared to the native ligand, C8-AHL (100 μM). For all primary and dose-response antagonism assays, the concentration of native ligand utilized was 10 nM (approximately equal to twice its EC50 value). […] At least 3 separate trials were performed using unique cultures on separate days.
row,Compound,CepR antagonism in words
1,O=C(Cc1ccc(Br)cc1)NC1CCSC1=O (centres unmarked) [Compound F10],dramatic losses in activity

# Same assay, conditions: Table S3, Ec-reporter; screening conc. 40 μM
row,Compound,Inh% (100-Act%) [%]
1,O=C(N[C@H]1CCOC1=O)C1CCC(c2ccc(Cl)cc2)CC1 (some centres unmarked) [Compound D14],-20

# Same assay, conditions: Table S3, Ec-reporter; screening conc. 77 μM
row,Compound,Inh% (100-Act%) [%]
1,O=C(N[C@H]1CCOC1=O)c1ccc(N=Nc2ccccc2)cc1 [Compound D20],8.0

# Same assay, conditions: Table S3, Ec-reporter; screening conc. 100 μM; against 10 nM C8-AHL
row,Compound,Inh% (100-Act%) [%]
1,Cc1ccc(CC(=O)N[C@H]2CCOC2=O)cc1 [Compound C19],-20
2,O=C(Cc1ccc(C(F)(F)F)cc1)N[C@H]1CCOC1=O [Compound C20],-52
3,Nc1ccc(CC(=O)N[C@H]2CCOC2=O)cc1 [Compound C21],-20
4,CC(C)(C)OC(=O)Nc1ccc(CC(=O)N[C@H]2CCOC2=O)cc1 [Compound C22],-70
5,O=C(Cc1ccc(O)cc1)N[C@H]1CCOC1=O [Compound C23],-10
6,CC(C)(C)OC(=O)NCCCCC(=O)N[C@H]1CCOC1=O [Compound D1],11
7,O=C(CCc1ccco1)N[C@H]1CCOC1=O [Compound D2],0.0
8,O=C(CCc1cccs1)N[C@H]1CCOC1=O [Compound D3],-40
9,Cc1nc(-c2ccccc2)oc1CC(=O)N[C@H]1CCOC1=O [Compound D4],22
10,Cc1ccc(C(=O)CCC(=O)N[C@H]2CCOC2=O)cc1 [Compound D6],-50
11,CCCc1ccc(C(=O)CCC(=O)N[C@H]2CCOC2=O)cc1 [Compound D7],15
12,O=C(N[C@H]1CCOC1=O)c1cnn(-c2ccccc2)c1C(F)(F)F [Compound D9],0.0
13,CCCCCCCCc1ccc(C(=O)N[C@H]2CCOC2=O)cc1 [Compound D13],38
14,O=C(COc1ccc(OC(F)(F)F)cc1)N[C@H]1CCOC1=O [Compound D15],-20
15,COc1cc(C(C)=O)ccc1OCC(=O)N[C@H]1CCOC1=O [Compound D16],0.0
16,Cc1cccc(CC(=O)N[C@H]2CCOC2=O)c1 [Compound E1],11
17,COc1cccc(CC(=O)N[C@H]2CCOC2=O)c1 [Compound E2],-10
18,CSc1ccc(CC(=O)N[C@H]2CCOC2=O)cc1 [Compound E6],-10
19,O=C(Cc1ccc(SC(F)(F)F)cc1)N[C@H]1CCOC1=O [Compound E8],0.0

row,Compound,Inh% (100-Act%) [%]
1,O=C(Cc1cc(C(F)(F)F)cc(C(F)(F)F)c1)N[C@H]1CCOC1=O [Compound E9],13
2,O=C(Cc1ccc2ccccc2c1)N[C@H]1CCOC1=O [Compound E12],-10
3,O=C(COc1ccccc1)N[C@H]1CCOC1=O [Compound E14],-30
4,Cc1ccc(OCC(=O)N[C@H]2CCOC2=O)cc1 [Compound E15],-30
5,Cc1cccc(OCC(=O)N[C@H]2CCOC2=O)c1 [Compound E16],21
6,COc1ccc(OCC(=O)N[C@H]2CCOC2=O)cc1 [Compound E17],0.0
7,COc1cccc(OCC(=O)N[C@H]2CCOC2=O)c1 [Compound E18],0.0
8,O=C(COc1ccc(F)cc1)N[C@H]1CCOC1=O [Compound E19],22
9,O=C(COc1ccc(Cl)cc1)N[C@H]1CCOC1=O [Compound E20],-20
10,O=C(COc1ccc(Br)cc1)N[C@H]1CCOC1=O [Compound E21],-10
11,O=C(COc1ccc(I)cc1)N[C@H]1CCOC1=O [Compound E22],-30
12,O=C(COc1ccc(C(F)(F)F)cc1)N[C@H]1CCOC1=O [Compound E23],-10
13,O=C(COc1ccc([N+](=O)[O-])cc1)N[C@H]1CCOC1=O [Compound E24],-10
14,Cc1cccc(CCC(=O)N[C@H]2CCOC2=O)c1 [Compound E27],-10
15,O=C(CCc1cccc([N+](=O)[O-])c1)N[C@H]1CCOC1=O [Compound E38],-10
16,O=C(Cc1ccc(Br)cc1)NC1CCSC1=O (centres unmarked) [Compound F10],6.0
17,O=C(Cc1cccc([N+](=O)[O-])c1)NC1CCSC1=O (centres unmarked) [Compound F11],25
18,COc1ccc(CC(=O)NC2CCSC2=O)cc1 (centres unmarked) [Compound F12],-20

# Molecular target: T1, CepR
# Assay: CepR agonism in E. coli β-galactosidase reporter (Ec-reporter) JLD271 [pJN105-cepR + pSC11-cepI]
# Format: cell-based, B. cenocepacia
# Conditions: Ec-reporter, agonism dose-response
# Source text: as §1
# We used the CepR Ec-reporter to perform a primary agonism screen at a single compound concentration (100 μM, or its solubility limit, indicated in Table S1). Thirty-one compounds displaying ≥70% agonistic activity in CepR (relative to C8-AHL) were identified and subjected to dose-response analyses using the Ec-reporter (Table I; see Table S2 for complete screening data and Fig. S3 for dose-response curves).
# as §2, §3
row,Compound,EC50 [nM]
1,O=C(CCc1cccc([N+](=O)[O-])c1)N[C@H]1CCOC1=O [Compound E38],660

# Same assay, conditions: Ec-reporter; activity for 100 μM C8-AHL set to 100%; error ±10%
row,Compound,Maximal Activation (%)
1,O=C(CCc1cccc([N+](=O)[O-])c1)N[C@H]1CCOC1=O [Compound E38],93

# Same assay, conditions: Table S2, Ec-reporter
row,Compound,EC50 [nM]
1,O=C(COc1ccc(Cl)cc1)N[C@H]1CCOC1=O [Compound E20],210
2,Cc1cccc(CCC(=O)N[C@H]2CCOC2=O)c1 [Compound E27],850

# Same assay, conditions: Table S2, Ec-reporter; screening conc. 40 μM
row,Compound,Act% [%]
1,O=C(N[C@H]1CCOC1=O)C1CCC(c2ccc(Cl)cc2)CC1 (some centres unmarked) [Compound D14],54

# Same assay, conditions: Table S2, Ec-reporter; screening conc. 77 μM
row,Compound,Act% [%]
1,O=C(N[C@H]1CCOC1=O)c1ccc(N=Nc2ccccc2)cc1 [Compound D20],37

# Same assay, conditions: Table S2, Ec-reporter; screening conc. 100 μM
row,Compound,Act% [%]
1,Cc1ccc(CC(=O)N[C@H]2CCOC2=O)cc1 [Compound C19],-1.6
2,O=C(Cc1ccc(C(F)(F)F)cc1)N[C@H]1CCOC1=O [Compound C20],0.3
3,Nc1ccc(CC(=O)N[C@H]2CCOC2=O)cc1 [Compound C21],21
4,CC(C)(C)OC(=O)Nc1ccc(CC(=O)N[C@H]2CCOC2=O)cc1 [Compound C22],1.1
5,O=C(Cc1ccc(O)cc1)N[C@H]1CCOC1=O [Compound C23],-0.5
6,CC(C)(C)OC(=O)NCCCCC(=O)N[C@H]1CCOC1=O [Compound D1],16
7,O=C(CCc1ccco1)N[C@H]1CCOC1=O [Compound D2],70
8,O=C(CCc1cccs1)N[C@H]1CCOC1=O [Compound D3],87
9,Cc1nc(-c2ccccc2)oc1CC(=O)N[C@H]1CCOC1=O [Compound D4],40
10,Cc1ccc(C(=O)CCC(=O)N[C@H]2CCOC2=O)cc1 [Compound D6],61
11,CCCc1ccc(C(=O)CCC(=O)N[C@H]2CCOC2=O)cc1 [Compound D7],18
12,O=C(N[C@H]1CCOC1=O)c1cnn(-c2ccccc2)c1C(F)(F)F [Compound D9],14
13,CCCCCCCCc1ccc(C(=O)N[C@H]2CCOC2=O)cc1 [Compound D13],4.2
14,O=C(COc1ccc(OC(F)(F)F)cc1)N[C@H]1CCOC1=O [Compound D15],46
15,COc1cc(C(C)=O)ccc1OCC(=O)N[C@H]1CCOC1=O [Compound D16],3.5
16,Cc1cccc(CC(=O)N[C@H]2CCOC2=O)c1 [Compound E1],16
17,COc1cccc(CC(=O)N[C@H]2CCOC2=O)c1 [Compound E2],28
18,CSc1ccc(CC(=O)N[C@H]2CCOC2=O)cc1 [Compound E6],3.7
19,O=C(Cc1ccc(SC(F)(F)F)cc1)N[C@H]1CCOC1=O [Compound E8],14

row,Compound,Act% [%]
1,O=C(Cc1cc(C(F)(F)F)cc(C(F)(F)F)c1)N[C@H]1CCOC1=O [Compound E9],2.2
2,O=C(Cc1ccc2ccccc2c1)N[C@H]1CCOC1=O [Compound E12],11
3,O=C(COc1ccccc1)N[C@H]1CCOC1=O [Compound E14],57
4,Cc1ccc(OCC(=O)N[C@H]2CCOC2=O)cc1 [Compound E15],65
5,Cc1cccc(OCC(=O)N[C@H]2CCOC2=O)c1 [Compound E16],11
6,COc1ccc(OCC(=O)N[C@H]2CCOC2=O)cc1 [Compound E17],50
7,COc1cccc(OCC(=O)N[C@H]2CCOC2=O)c1 [Compound E18],30
8,O=C(COc1ccc(F)cc1)N[C@H]1CCOC1=O [Compound E19],42
9,O=C(COc1ccc(Cl)cc1)N[C@H]1CCOC1=O [Compound E20],100
10,O=C(COc1ccc(Br)cc1)N[C@H]1CCOC1=O [Compound E21],89
11,O=C(COc1ccc(I)cc1)N[C@H]1CCOC1=O [Compound E22],92
12,O=C(COc1ccc(C(F)(F)F)cc1)N[C@H]1CCOC1=O [Compound E23],89
13,O=C(COc1ccc([N+](=O)[O-])cc1)N[C@H]1CCOC1=O [Compound E24],75
14,Cc1cccc(CCC(=O)N[C@H]2CCOC2=O)c1 [Compound E27],75
15,O=C(CCc1cccc([N+](=O)[O-])c1)N[C@H]1CCOC1=O [Compound E38],93
16,O=C(Cc1ccc(Br)cc1)NC1CCSC1=O (centres unmarked) [Compound F10],0.5
17,O=C(Cc1cccc([N+](=O)[O-])c1)NC1CCSC1=O (centres unmarked) [Compound F11],45.0
18,COc1ccc(CC(=O)NC2CCSC2=O)cc1 (centres unmarked) [Compound F12],2.4
